Assay: Cavity diagnosis testing under dental curing lamp with ImageJ image analysis
Design: species or system human
From the text: Extracted teeth are obtained from School of Dentistry, University of Michigan (human subjects exempt) and stored in 1% sodium azide before use. The teeth are painted with an acid resistant varnish leaving a 1 mm 2 enamel window on the buccal surface of the crowns of the teeth. […] At the completion of the demineralization, the teeth are rinsed with distilled H2O before subjected to caries activity test. Residual varnish is removed by washing in acetone.
Teeth are exposed to 20 microliters of sample for three minutes prior to rinsing in DI water. Rinsing is done initially for 10 seconds, and teeth are examined and photographed while illuminated with a standard dental curing lamp. Rinsing is continued for an additional 10 seconds, followed by imaging, and this is repeated for up to 5 minutes to determine “residence times” for each sample to optimize the exposure procedure.
After a 3 minute exposure followed by 20 seconds of rinsing, imaging is performed under the dental curing lamp.
Digital images are taken with a Nikon ABC camera and analyzed using ImageJ image analysis software. In particular, the “mean gray value” measurement tool is used to compare grayscale brightness between the carious lesion and the background tooth as a measurement of contrast. […]

FITC-dextran
retention in carious lesions on rinsing in DI water (controls: rinse times of more than 20 seconds, cationic StNP: up to five minutes): fully washed away
illumination of carious lesions (statistical analysis of percent intensity difference) (versus untreated teeth / background tooth): did not illuminate carious lesions

— patent publication US12023388B2, “Detection and treatment of caries and microcavities with nanoparticles” (THE REGENTS OF THE UNIVERSITY OF MICHIGAN, priority 2015, dated 2024)
